{"source": "patent US11344534B2", "about": "“Cholinergic agonism for the treatment of pancreatic cancer” (priority 2017, dated 2022)", "key": {"[1]": {"tested_on": "murine PDAC cell lines (Panc02, K8282)", "assay": "MTT assay, murine PDAC cell lines", "assay_type": "cell-based, mouse", "conditions": "agonist added to antagonist", "method": "Cell proliferation in each cell line was assessed with a 3-(4,5-dimethylthiazol-2yl)-2,5-diphenyltetrazolium bromide (MTT) assay kit (Sigma) in accordance with the manufacturer's instructions. 3×10^3 cells were grown in 96-well plate to around ˜70% confluent, changed the 0.5% FBS medium, added the drugs respectively and incubated them for further 72 hrs incubation in a typical CO2 incubator (˜20% O2). Treated cells were rinsed twice with PBS, incubated in 10 ll MTT solution for 4 hr at 37° C., and 100 uL DMSO was added to each well. The absorbance of each well was measured at 570 nm using Tilter-Tech 96-well multiscanner (Becton Dickinson, Heidelberg, Germany). The relative number of viable cells compared with the number of cells without drug treatment was expressed as percent cell viability using the following formula:\nCell proliferation in each cell line was assessed with a 3-(4,5-dimethylthiazol-2yl)-2,5-diphenyltetrazolium bromide (MTT) assay kit (Sigma) in accordance with the manufacturer's instructions. 3×10^3 cells were grown in 96-well plate to ˜70% confluency, the media was changed to 0.5% FBS medium, the respective drugs were added, and they were incubated for an additional 72 hours in a CO2 incubator (˜5% CO2). Treated cells were rinsed twice with PBS, incubated in 10 ul MTT (5 mg/ml PBS) solution for 4 hours at 37° C., and 100 uL DMSO was then added to each well. The absorbance of each well was measured at 570 nm using a Tilter-Tech 96-well multiscanner (Becton Dickinson, Heidelberg, Germany). The relative number of viable cells compared with the number of cells without drug treatment was expressed as percent cell viability using the following formula: cell viability (%)=A570 of treated cells/A570 of untreated cells."}, "Panc1 cells": {"tested_on": "Panc1 cells", "assay": "RNAseq of Panc1 cells after pilocarpine treatment", "assay_type": "cell-based, human", "protocol": "Panc1 cells were lysed in RNA lysis buffer supplied in […] PicoPure RNA isolation kit (Life Technologies)(n=4). Total RNA was isolated in accordance with the manufacturer's protocol. cDNA was amplified and libraries were constructed by using SMARTer Ultra Low Input RNA Kit (Clontech Laboratories) and Nextera XT DNA Library Preparation Kit (Illumina) according to the respective manufacturer's instructions. Sequencing was performed with Hiseq 2500 (Illumina) (30 M 100 bp single end reads per sample). Sequenced reads were mapped to the NCBI annotated genes of the […] with BowTie2 and TopHat 2.0.4^5, 6. Reads were counted with HTSeq. Expression datasets were deposited in the Gene Expression Omnibus (GEO)^7 (GSE102880 code: armlggayprundsh). Samples were normalized with the TMM algorithm. The statistical significance of differential expression was estimated with weighted Limma-Voom^8, 9 which runs under Bioconductor/R^10-12. […] First, a screen in terms of Gene Ontology^14 categories for consistency with phenotype was performed. Genes were retained which either: 57 genes fulfilled these requirements, these genes were analyzed further in terms of KEGG pathways^15 with iPathwayGuide^16, 17"}, "[2]": {"conditions": "Panc1 cells, pilocarpine, preliminary analysis"}, "[3]": {"conditions": "Panc-1 cells treated with pilocarpine"}}, "note": "“Also recorded” adds a separate entry of the source."}
{"smiles": "CC[C@@H]1C(=O)OC[C@@H]1Cc1cncn1C", "note": "[pilocarpine, (3S,4R)-3-ethyl-4-[(3-methylimidazol-4-yl)methyl]oxolan-2-one]", "values": [{"measurement": "increase in proliferation due to muscarinic antagonists", "setting": "[1]", "value": "blocked; also recorded: inhibited to some extent"}, {"measurement": "expression of growth related genes EGFR and PI3K (RNAseq)", "setting": "Panc1 cells; Panc1 cells, pilocarpine 1 mM, 72 hrs", "value": "suppressed"}, {"measurement": "expression of PIK3CA(PI3K), EGFR, KDR(RTK), ITGAV(ITGA), NTRKB(TRKB) and BRAF(RafB) (RNAseq, KEGG pathways)", "setting": "Panc1 cells; Panc1 cells, pilocarpine treated vs untreated", "value": "downregulated"}, {"measurement": "expression of BDNF and NGF", "setting": "Panc1 cells; [2]", "value": "moderately decreased"}, {"measurement": "expression of TRK-B receptor (NTRK2)", "setting": "Panc1 cells; [2]", "value": "one of the most downregulated genes"}, {"measurement": "expression of BRAF, EGFR, PIK3CA, ITGAV, KDR, and FOXO3 (RNAseq)", "setting": "Panc1 cells; [3]", "value": "downregulation"}, {"measurement": "expression of STK11 and FOX06 (RNAseq)", "setting": "Panc1 cells; [3]", "value": "upregulation"}]}
